What was measured:
UBE3A [1] = target: T1, UBE3A (Homo sapiens, UniProt Q05086); experiment: in vitro ubiquitination assay (polyubiquitination of S5A); assay type: biochemical; settings: for IC50: S5A polyubiquitination, varying concentrations, estimated / preliminary; for inhibition of UBE3A-mediated polyubiquitination of S5A: compound at 100 μM, western/immunoblot readout
T1 sequence (Q05086 24-875 limits assumed): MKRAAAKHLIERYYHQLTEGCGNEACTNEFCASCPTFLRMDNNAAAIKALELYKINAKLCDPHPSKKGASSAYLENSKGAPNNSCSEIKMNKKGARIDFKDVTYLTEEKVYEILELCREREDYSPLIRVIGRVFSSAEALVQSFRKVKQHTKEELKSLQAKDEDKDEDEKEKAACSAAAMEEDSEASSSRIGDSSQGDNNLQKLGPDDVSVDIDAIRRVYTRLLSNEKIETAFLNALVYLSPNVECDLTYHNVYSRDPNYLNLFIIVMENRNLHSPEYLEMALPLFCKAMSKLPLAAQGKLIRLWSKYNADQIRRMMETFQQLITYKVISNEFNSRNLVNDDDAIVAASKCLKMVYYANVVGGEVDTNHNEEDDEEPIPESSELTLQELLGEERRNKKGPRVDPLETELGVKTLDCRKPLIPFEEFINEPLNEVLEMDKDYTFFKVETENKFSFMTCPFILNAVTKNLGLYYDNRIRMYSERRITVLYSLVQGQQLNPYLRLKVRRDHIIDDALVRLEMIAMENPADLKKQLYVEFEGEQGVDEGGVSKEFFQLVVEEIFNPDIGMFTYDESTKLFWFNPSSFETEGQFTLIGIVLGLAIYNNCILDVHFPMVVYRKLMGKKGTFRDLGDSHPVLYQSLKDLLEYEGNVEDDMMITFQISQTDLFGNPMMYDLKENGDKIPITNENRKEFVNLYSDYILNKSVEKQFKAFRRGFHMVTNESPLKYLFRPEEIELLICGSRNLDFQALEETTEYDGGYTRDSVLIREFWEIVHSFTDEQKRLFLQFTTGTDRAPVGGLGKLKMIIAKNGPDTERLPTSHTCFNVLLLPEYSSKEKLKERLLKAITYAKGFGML
Method: FIG. 3A-B. Identification of a potential UBE3A inhibitor compound by in vitro ubiquitination assay. (A). Purified UBA1 (E1), UBE2L3 (E2) and UBE3A (E3) were pre-incubated with each compound at 100 uM, followed by incubation with purified ubiquitin (Ub) and S5A in the presence of ATP. […] NC, negative control without active UBE3A; PC, positive control with active UBE3A but with no small molecule. (B). Structure of #3 compound (Zinc 23375107).
FIG. 4A-B. Screening for compounds that are structurally analogous to #3 compound and could bind to the druggable hotspot of the UBE3A HECT domain. Left panel (A): Purified UBA1 (E1), UBE2L3 (E2) and UBE3A (E3) were pre-incubated with structural analogs of #3 compound at 100 μM, followed by incubation with purified ubiquitin (Ub) and S5A in the presence of ATP.
FIG. 5A-B. Inhibition of the E3 activity of UBE3A by various concentrations of compound #3 and #3-1. The UBE3A activity was assayed by the in vitro ubiquitination assay using S5A as a substrate and the indicated concentrations of compound #3 (A) or #3-1 (B). The polyubiquitinated forms of S5A were quantified by western analysis.
We purchased 35 compounds among the 46 hits identified by the initial virtual screen, and tested their abilities to modulate the ubiquitin ligase activity of UBE3A. The in vitro ubiquitination assay was developed using purified ubiquitin (Ub), Uba1 (E1), UbcH7/UBE2L3 (E2), UBE3A (E3), and S5A/Angiocidin/PSMD4 (substrate), as a modification of our previously reported assay (19). The purchased compounds were dissolved in DMSO to generate a stock solution at 10 mM, and then their effects on UBE3A activity were tested by adding each compound at a final concentration of 100 μM. E1, E2 and E3 enzymes were first pre-incubated at 37° C. for 30 min in a buffer containing MgCl2, ATP and each compound. Subsequently, ubiquitin and S5A were added to the reaction and incubated for 60 more minutes. Samples were then analyzed by SDS-PAGE and immunoblotting, and polyubiquitination of the substrate S5A was determined as specific appearance of forms of anti-S5A immunoreactivity at higher molecular weights.

HeLa cells = experiment: cytotoxicity in HPV-positive cervical cancer cells (alamarBlue cell viability); assay type: cell-based; settings: Homo sapiens, 72 hrs incubation
Method: FIG. 7. Cytotoxicity of the hit compound #3-1 in HPV-positive cervical cancer cells. HPV18-positive human cervical cancer HeLa cells were incubated for 72 hrs with the compound #3-1 at the indicated concentrations, followed by determination of cell viability by the alamarBlue™ HS Cell Viability Reagent (Thermo). Data are shown as means±SEM, and the EC50 is estimated to be 30 μM.
We have recently tested whether the compound #3.1 exert any cytotoxic action in HPV-positive cancer cells. Human cervical carcinoma HeLa cells are a widely used HPV18-positive cell lines. We incubated HeLa cells with the compound #3.1 at various concentrations for 72 hours and determined viability of the cells (FIG. 7). This study has shown that the compound #3.1 exerts cytotoxicity in a dose-dependent manner with EC50 at 30 μM.

[2] = target: T2, recombinant UBE3A HECT domain (Homo sapiens, UniProt Q05086); experiment: fluorescence thermal shift analysis (FTS); assay type: binding; settings: 0.5 uM UBE3A, Hepes buffer pH7.5, Tm shifted to lower temperature
T2 construct: a truncated UBE3A protein (residues 495-852 of isoform 1) using E. coli; made in house; host or cells: E. coli
T2 sequence (Q05086 518-875): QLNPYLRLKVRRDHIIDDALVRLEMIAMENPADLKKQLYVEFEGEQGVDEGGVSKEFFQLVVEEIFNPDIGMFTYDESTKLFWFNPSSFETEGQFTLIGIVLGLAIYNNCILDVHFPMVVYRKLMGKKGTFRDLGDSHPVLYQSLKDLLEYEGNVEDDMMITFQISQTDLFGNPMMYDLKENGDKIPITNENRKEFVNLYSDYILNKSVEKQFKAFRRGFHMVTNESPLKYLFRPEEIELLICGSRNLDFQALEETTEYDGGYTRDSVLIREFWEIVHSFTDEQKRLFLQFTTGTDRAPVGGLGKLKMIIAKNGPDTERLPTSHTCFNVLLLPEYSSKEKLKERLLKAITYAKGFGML
Source text: FIG. 6A-B. Fluorescence thermal shift analysis of recombinant UBE3A HECT domain with the compound #3-1. (A) Melting curves of recombinant UBE3A HECT domain with multiple concentrations of #3-1 show the melting temperature Tm was shifted to lower temperature progressively with increase in #3-1 concentration. The rise of pre-transition background reading indicates destabilizing of the protein by the small molecule inhibitor, which is consists with the decrease of Tm by the compound. (B) Plot of normalized melting curves with respect to compound concentrations. The compound #3-1 shifts the melting temperature in a significant fashion, indicating specific binding. For example, the Tm is shifted 2.5 degree by 15 uM #3-1 and 5.1 degree by 25 uM #3-1 from the reference value. The test was done with 0.5 uM UBE3A in Hepes buffer (20 mM Hepes, 150 mM NaCl, pH7.5).
To verify the physical interaction between the HECT domain of UBE3A and the identified compounds and also develop a high throughput assay for further screening, we have developed a fluorescence thermal shift analysis (FTS). we have prepared a truncated UBE3A protein (residues 495-852 of isoform 1) using E. coli and performed preliminary FTS test (FIG. 6). […] Small molecule binding affects protein thermal stability, therefore can be detected through a shift in protein's thermal denaturation (melting) temperature (Tm).

UBE3A [3] = target: T1, UBE3A; settings: blocks UBE3A oligomerization by substituting Phe727; cited from earlier work

Row | IC50 (UBE3A [1]) [µM] | Tm shift from the reference value ([2]; 15 uM compound) [degree] | Tm shift from the reference value ([2]; 25 uM compound) [degree] | inhibition of UBE3A-mediated polyubiquitination of S5A (UBE3A [1]; listed as #3.1) | SMILES | inhibition of UBE3A-mediated polyubiquitination of S5A (UBE3A [1]) | inhibition of UBE3A-mediated polyubiquitination of S5A (UBE3A [1]; listed as Zinc 23375107) | EC50 (HeLa cells) [µM] | Ki (UBE3A [3]) [µM]
1 | ~100 |  |  |  | COc1ccc(CNCC2CCOCC2)c(OCC(O)CN2CCN(C)CC2)c1 (stereo not shown) [#3, 1-(5-methoxy-2-{[(tetrahydro-2H-pyran-4-ylmethyl)amino]methyl}phenoxy)-3-(4-methyl-1-piperazinyl)-2-propanol] | inhibited formation of PolyUb-S5A | significantly inhibits polyubiquitination of S5A |  | 
2 | ~10 | 2.5 | 5.1 | inhibited formation of PolyUb-S5A | COc1ccc(CNCc2cccc(C)c2)c(OCC(O)CN2CCN(C)CC2)c1 (stereo not shown) [#3-1, 1-(5-methoxy-2-{[(3-methylbenzyl)amino]methyl}phenoxy)-3-(4-methyl-1-piperazinyl)-2-propanol] | capable of inhibiting the UBE3A-mediated polyubiquitination of S5A substrate |  | 30 | 
3 |  |  |  |  | CC(=O)N[C@@H](Cc1ccccc1)C(=O)O [N-acetyl phenylalanine] |  |  |  | 12000

— patent US12564588B2, “HECT E3 ubiquitin liagase inhibitors and uses thereof” (Northwestern University, priority 2021, dated 2026)
